# Test results reported in ChEMBL document CHEMBL3792297, “Studies on phenothiazines: New microtubule-interacting compounds with phenothiazine A-ring as potent antineoplastic agents” (Bioorg Med Chem, 2016).
# How the values were obtained:
# Type in all cases: functional
# [1] = Growth inhibition of human OVCAR3 cells after 48 hrs by SRB assay; conditions: OVCAR-3, 48 h
# [2] = system: NCI-H226; assay: Growth inhibition of human NCI-H226 cells at 10 uM after 48 hrs by SRB assay relative to control; conditions: NCI-H226, 48 h, read-out: GI
# [3] = system: NCI-H522; assay: Growth inhibition of human NCI-H522 cells at 10 uM after 48 hrs by SRB assay relative to control; conditions: NCI-H522, 48 h, read-out: GI
# [4] = Growth inhibition of human HL-60(TB) cells after 48 hrs by SRB assay; conditions: HL-60, 48 h
# [5] = system: K562; assay: Growth inhibition of human K562 cells after 48 hrs by SRB assay; conditions: K562, 48 h
# [6] = Growth inhibition of human SF268 cells after 48 hrs by SRB assay; conditions: SF-268, 48 h
# [7] = system: SN12C; assay: Growth inhibition of human SN12C cells after 48 hrs by SRB assay
# [8] = system: SR; assay: Growth inhibition of human SR cells at 10 uM after 48 hrs by SRB assay relative to control; conditions: read-out: GI
# [9] = Growth inhibition of human COLO205 cells after 48 hrs by SRB assay; conditions: COLO 205, 48 h
# [10] = Growth inhibition of human OVCAR8 cells at 10 uM after 48 hrs by SRB assay relative to control; conditions: OVCAR-8, 48 h, read-out: GI
# [11] = system: CCRF-CEM; assay: Growth inhibition of human CCRF-CEM cells after 48 hrs by SRB assay
# [12] = Growth inhibition of human DU145 cells after 48 hrs by SRB assay; conditions: DU-145, 48 h
# [13] = system: EKVX; assay: Growth inhibition of human EKVX cells at 10 uM after 48 hrs by SRB assay relative to control; conditions: read-out: GI
# [14] = system: 786-0; assay: Growth inhibition of human 786-0 cells at 10 uM after 48 hrs by SRB assay relative to control; conditions: 786-0, 48 h, read-out: GI
# [15] = Growth inhibition of human RXF393 cells after 48 hrs by SRB assay; conditions: RXF 393, 48 h
# [16] = Growth inhibition of human PC3 cells at 10 uM after 48 hrs by SRB assay relative to control; conditions: PC-3, 48 h, read-out: GI
# [17] = system: MDA-MB-468; assay: Growth inhibition of human MDA-MB-468 cells after 48 hrs by SRB assay; conditions: MDA-MB-468, 48 h
# [18] = Growth inhibition of human HCC2998 cells after 48 hrs by SRB assay; conditions: HCC 2998, 48 h
# [19] = system: MDA-MB-468; assay: Growth inhibition of human MDA-MB-468 cells at 10 uM after 48 hrs by SRB assay relative to control; conditions: MDA-MB-468, 48 h, read-out: GI
# [20] = system: HT-29; assay: Growth inhibition of human HT-29 cells after 48 hrs by SRB assay; conditions: HT-29, 48 h
# [21] = Growth inhibition of human SKOV3 cells at 10 uM after 48 hrs by SRB assay relative to control; conditions: SK-OV-3, 48 h, read-out: GI
# [22] = system: NCI-H23; assay: Growth inhibition of human NCI-H23 cells after 48 hrs by SRB assay; conditions: NCI-H23, 48 h
# [23] = system: SK-MEL-28; assay: Growth inhibition of human SK-MEL-28 cells at 10 uM after 48 hrs by SRB assay relative to control; conditions: SK-MEL-28, 48 h, read-out: GI
# [24] = Growth inhibition of human HOP62 cells at 10 uM after 48 hrs by SRB assay relative to control; conditions: HOP-62, 48 h, read-out: GI
# [25] = system: U-251; assay: Growth inhibition of human U251 cells after 48 hrs by SRB assay; conditions: U-251, 48 h
# [26] = Growth inhibition of human SF539 cells at 10 uM after 48 hrs by SRB assay relative to control; conditions: SF-539, 48 h, read-out: GI
# [27] = system: SK-MEL-5; assay: Growth inhibition of human SK-MEL-5 cells at 10 uM after 48 hrs by SRB assay relative to control; conditions: SK-MEL-5, 48 h, read-out: GI
# [28] = system: KM12; assay: Growth inhibition of human KM12 cells after 48 hrs by SRB assay; conditions: KM12, 48 h
# [29] = Growth inhibition of human SKOV3 cells after 48 hrs by SRB assay; conditions: SK-OV-3, 48 h
# [30] = Growth inhibition of human LOXIMVI cells at 10 uM after 48 hrs by SRB assay relative to control; conditions: LOX IMVI, read-out: GI
# [31] = Growth inhibition of human SF539 cells after 48 hrs by SRB assay; conditions: SF-539, 48 h
# [32] = system: NCI-H460; assay: Growth inhibition of human NCI-H460 cells at 10 uM after 48 hrs by SRB assay relative to control; conditions: NCI-H460, 48 h, read-out: GI
# [33] = Growth inhibition of human BT549 cells after 48 hrs by SRB assay; conditions: BT-549, 48 h
# [34] = Growth inhibition of human UO31 cells at 10 uM after 48 hrs by SRB assay relative to control; conditions: UO-31, 48 h, read-out: GI
# [35] = system: MDA-MB-435; assay: Growth inhibition of human MDA-MB-435 cells after 48 hrs by SRB assay; conditions: MDA-MB-435, 48 h
# [36] = Growth inhibition of human HCT15 cells after 48 hrs by SRB assay; conditions: HCT-15, 48 h
# [37] = system: HT-29; assay: Growth inhibition of human HT-29 cells at 10 uM after 48 hrs by SRB assay relative to control; conditions: HT-29, 48 h, read-out: GI
# [38] = system: CCRF-CEM; assay: Growth inhibition of human CCRF-CEM cells at 10 uM after 48 hrs by SRB assay relative to control; conditions: read-out: GI
# [39] = Growth inhibition of human OVCAR4 cells after 48 hrs by SRB assay; conditions: OVCAR-4, 48 h
# [40] = Growth inhibition of human SNB75 cells after 48 hrs by SRB assay; conditions: SNB-75, 48 h
# [41] = system: NCI-H460; assay: Growth inhibition of human NCI-H460 cells after 48 hrs by SRB assay; conditions: NCI-H460, 48 h
# [42] = Growth inhibition of human OVCAR3 cells at 10 uM after 48 hrs by SRB assay relative to control; conditions: OVCAR-3, 48 h, read-out: GI
# [43] = Growth inhibition of human Hs 578T cells after 48 hrs by SRB assay
# [44] = system: ACHN; assay: Growth inhibition of human ACHN cells after 48 hrs by SRB assay
compound,measurement,setting,value
O=C(c1ccc2c(c1)Sc1ccccc1N2)c1c[nH]c2ccccc12,GI50,[1],360 nM
same,inhibition of growth at 10 µM,[2],18%
same,inhibition of growth at 10 µM,[3],100%
same,GI50,[4],398 nM
same,GI50,[5],310 nM
same,GI50,[6],798 nM
same,GI50,[7],708 nM
same,inhibition of growth at 10 µM,[8],76%
same,GI50,[9],285 nM
same,inhibition of growth at 10 µM,[10],77%
same,GI50,[11],328 nM
same,GI50,[12],679 nM
same,inhibition of growth at 10 µM,[13],47%
same,inhibition of growth at 10 µM,[14],50%
same,GI50,[15],510 nM
same,inhibition of growth at 10 µM,[16],74%
same,GI50,[17],301 nM
same,GI50,[18],876 nM
same,inhibition of growth at 10 µM,[19],100%
same,GI50,[20],358 nM
same,inhibition of growth at 10 µM,[21],85%
same,GI50,[22],389 nM
same,inhibition of growth at 10 µM,[23],54%
same,inhibition of growth at 10 µM,[24],61%
same,GI50,[25],413 nM
same,inhibition of growth at 10 µM,[26],100%
same,inhibition of growth at 10 µM,[27],89%
same,GI50,[28],311 nM
same,GI50,[29],380 nM
same,inhibition of growth at 10 µM,[30],85%
same,GI50,[31],258 nM
same,inhibition of growth at 10 µM,[32],90%
same,GI50,[33],366 nM
same,inhibition of growth at 10 µM,[34],58%
same,GI50,[35],98 nM
same,GI50,[36],408 nM
same,inhibition of growth at 10 µM,[37],99%
same,inhibition of growth at 10 µM,[38],81%
same,GI50,[39],4110 nM
same,GI50,[40],249 nM
same,GI50,[41],347 nM
same,inhibition of growth at 10 µM,[42],100%
same,GI50,[43],239 nM
same,GI50,[44],671 nM
COc1ccc(C(=O)N2c3ccccc3Sc3ccccc32)cc1F,GI50,[1],249 nM
same,inhibition of growth at 10 µM,[2],30%
same,inhibition of growth at 10 µM,[3],100%
same,GI50,[4],305 nM
same,GI50,[5],110 nM
same,GI50,[6],799 nM
same,GI50,[7],525 nM
same,inhibition of growth at 10 µM,[8],75%
same,GI50,[9],236 nM
same,inhibition of growth at 10 µM,[10],97%
same,GI50,[11],287 nM
same,GI50,[12],3610 nM
same,inhibition of growth at 10 µM,[13],59%
same,inhibition of growth at 10 µM,[14],64%
same,GI50,[15],211 nM
same,inhibition of growth at 10 µM,[16],71%
same,GI50,[17],231 nM
same,GI50,[18],470 nM
same,inhibition of growth at 10 µM,[19],100%
same,GI50,[20],283 nM
same,inhibition of growth at 10 µM,[21],87%
same,GI50,[22],340 nM
same,inhibition of growth at 10 µM,[23],57%
same,inhibition of growth at 10 µM,[24],50%
same,GI50,[25],353 nM
same,inhibition of growth at 10 µM,[26],91%
same,inhibition of growth at 10 µM,[27],93%
same,GI50,[28],203 nM
same,GI50,[29],306 nM
same,inhibition of growth at 10 µM,[30],64%
same,GI50,[31],218 nM
same,inhibition of growth at 10 µM,[32],96%
same,GI50,[33],439 nM
same,inhibition of growth at 10 µM,[34],50%
same,GI50,[35],36 nM
same,GI50,[36],287 nM
same,inhibition of growth at 10 µM,[37],100%
same,inhibition of growth at 10 µM,[38],88%
same,GI50,[39],1450 nM
same,GI50,[40],270 nM
same,GI50,[41],340 nM
same,inhibition of growth at 10 µM,[42],100%
same,GI50,[43],193 nM
same,GI50,[44],1050 nM
